One assay deals with MCF-10A cells. Put plainly: TNFα stimulation of MCF-10A cells, immunoprecipitation and immunoblotting of fractions. The assay is classed as cell-based, Human. The following applies: 20 ng/ml TNFα. How it is done: FIG. 10B is a pair of photographs of immunoblots. Lysates from MCF-10A cells left untreated (0) or stimulated with 20 ng/ml TNFα for the indicated times (0.5, or 2 hours) were immunoprecipitated with anti-IKKβ (left) or anti-IKKγ (right). The immunoprecipitates were immunoblotted with antibodies specific to MUC1-C, and either IKKβ (left panel) or IKKγ (right panel) as loading controls. The molecular weights of proteins (as indicated on the left of the photographs) are expressed as kilodaltons (kDa).
FIG. 10C is a series of photographs of immunoblots. MCF-10A cells were left untreated (0) or stimulated with 20 ng/ml TNFα for the indicated times. Cytosolic and nuclear fractions of the cells were prepared and subjected to immunoblotting with the indicated antibodies. The molecular weights of proteins (as indicated on the left of the photographs) are expressed as kilodaltons (kDa).
(§1) Cell culture. Human HCT116 colon carcinoma cells, HeLa cervical carcinoma cells and MCF-7 breast cancer cells were grown in Dulbecco's modified Eagle's medium with 10% heat-inactivated fetal bovine serum, 100 units/ml penicillin, […] streptomycin and 2 mM L-glutamine. Human ZR-75-1 breast cancer cells were grown in RPMI1640 medium containing 10% heat-inactivated fetal bovine serum, antibiotics and L-glutamine. Human MCF-10A breast epithelial cells were grown in mammary epithelial cell growth media (MEGM; Cambrex Corp.).
Subcellular fractionation. Nuclear and cytosolic fractions were prepared as described in Kharbanda et al. (1996) Cancer Res. 56:3617-3621.
(§2) Immunoprecipitation and immunoblotting. Lysates from subconfluent cells were prepared as described in Ren et al. (2004) Cancer Cell 5:163-175. Soluble proteins were incubated with anti-IKKβ (Cell Signaling Technology) or anti-IKKγ (Santa Cruz Biotechnology) for 2 h at 4° C. […] The immune complexes were detected with horseradish peroxidase-conjugated secondary (anti-IgG) antibodies (Amersham Biosciences) and enhanced chemiluminescence (ECL; Amersham Biosciences). […]
For orientation: Immunoblotting shows a protein as a band on a membrane.

The test system of a further assay is MCF-7 cells. Put plainly: TNFα treatment of MCF-7 cells, MUC1-C binding to IKKs. The assay is classed as cell-based, Human. On the procedure: as §1, §2

The values that follow come from patent publication US8129345B2, “MUC1-IκB kinase complexes and their activities” (Dana-Farber Cancer Institute, Inc., priority 2006, dated 2012).

Consider TNFα, for which the “phosphorylation and degradation of IκBα” value in the assay on MCF-10A cells (MCF-10A cytosolic fractions) is “associated with phosphorylation and degradation of IκBα”. The “targeting of NF-κB p65 to the nucleus” value with MCF-10A cells (MCF-10A nuclear fractions) is reported as “targeting of NF-κB p65 to the nucleus”. Moreover, in the assay with MCF-10A cells (MCF-10A), the “binding of MUC1-C to IKKβ and IKKγ” value was “increased binding”. Moreover, the “binding of MUC1-C to IKKβ or IKKγ” value with MCF-7 cells was “no apparent effect”.
